Assay results published in PMC3651934 (2011).

Tests used:
Assay in all cases: ITC
[1] = system: SAM-I riboswitch G3nU (RNA, riboswitch) GGCUUAUCAAGAGAGGUUGAGGGACUGGCCCGACGAAACCCGGCAACCAGAAAUGGUGCCAAUUCCUGCAGCGGAAACGUUGAAAGAUGAGCCG; conditions: 100 mM KCl, 10 mM MgCl2; 50 mM HEPES pH 7.5, 30 °C
[2] = system: SAM-I riboswitch A1nC (RNA, riboswitch) GGCUUAUCAAGAGAGGUGGCGGGACUGGCCCGACGAAACCCGGCAACCAGAAAUGGUGCCAAUUCCUGCAGCGGAAACGUUGAAAGAUGAGCCG; conditions: 100 mM KCl, 10 mM MgCl2; 50 mM HEPES pH 7.5, 30 °C; 100 μM SAM titrated into 10 μM RNA; no heat evolved
[3] = system: SAM-I riboswitch A1nC, G2nU, G3nU (RNA, riboswitch) GGCUUAUCAAGAGAGGUUUCGGGACUGGCCCGACGAAACCCGGCAACCAGAAAUGGUGCCAAUUCCUGCAGCGGAAACGUUGAAAGAUGAGCCG; conditions: 100 mM KCl, 10 mM MgCl2; 50 mM HEPES pH 7.5, 30 °C; 100 μM SAM titrated into 10 μM RNA; no heat evolved
[4] = system: SAM-I riboswitch G2nA (RNA, riboswitch) GGCUUAUCAAGAGAGGUGAAGGGACUGGCCCGACGAAACCCGGCAACCAGAAAUGGUGCCAAUUCCUGCAGCGGAAACGUUGAAAGAUGAGCCG; conditions: 100 mM KCl, 10 mM MgCl2; 50 mM HEPES pH 7.5, 30 °C
[5] = system: SAM-I riboswitch G2nC (RNA, riboswitch) GGCUUAUCAAGAGAGGUGCAGGGACUGGCCCGACGAAACCCGGCAACCAGAAAUGGUGCCAAUUCCUGCAGCGGAAACGUUGAAAGAUGAGCCG; conditions: 100 mM KCl, 10 mM MgCl2; 50 mM HEPES pH 7.5, 30 °C; 100 μM SAM titrated into 10 μM RNA; no heat evolved
[6] = system: SAM-I riboswitch G2nU, G3nU (RNA, riboswitch) GGCUUAUCAAGAGAGGUUUAGGGACUGGCCCGACGAAACCCGGCAACCAGAAAUGGUGCCAAUUCCUGCAGCGGAAACGUUGAAAGAUGAGCCG; conditions: 100 mM KCl, 10 mM MgCl2; 50 mM HEPES pH 7.5, 30 °C
[7] = system: SAM-I riboswitch, natural k-turn (RNA, riboswitch) GGCUUAUCAAGAGAGGUGGAGGGACUGGCCCGACGAAACCCGGCAACCAGAAAUGGUGCCAAUUCCUGCAGCGGAAACGUUGAAAGAUGAGCCG; conditions: 100 mM KCl, 10 mM MgCl2; 50 mM HEPES pH 7.5, 30 °C
[8] = system: SAM-I riboswitch A1nU (RNA, riboswitch) GGCUUAUCAAGAGAGGUGGUGGGACUGGCCCGACGAAACCCGGCAACCAGAAAUGGUGCCAAUUCCUGCAGCGGAAACGUUGAAAGAUGAGCCG; conditions: 100 mM KCl, 10 mM MgCl2; 50 mM HEPES pH 7.5, 30 °C; 100 μM SAM titrated into 10 μM RNA; no heat evolved

Compound: C[S+](CC[C@H](N)C(=O)O)C[C@H]1O[C@@H](n2cnc3c(N)ncnc32)[C@H](O)[C@@H]1O (some centres unmarked)
- Kd [1]: 340 ± 40 nM
- binding [2]: no
- binding [3]: no
- Kd [4]: 310 ± 60 nM
- binding [5]: no
- Kd [6]: 1950 ± 270 nM
- Kd [7]: 540 ± 250 nM
- binding [8]: no
